Source: patent US8241647B2, “Amphiphilic molecule, molecular assembly comprising the amphiphilic molecule, and use of the molecular assembly” (Waseda University, priority 2007, dated 2012)
Entries after “also recorded” stand apart in the source; their conditions may differ.

Columns and labels:
[1] = Concentration of Compound 3 in rat tissue 24 hours after i.v. liposome (LC/MS/MS); type: in vivo; conditions: for concentration at 24 h: male, SD, rat, iv, 24 hours after i.v. liposome
Method: A pH-responsive liposome was prepared from mixed lipid (Compound (3)/cholesterol/PEG-Glu2C18=5/5/0.03 (mol)) using the high-pressure extrusion method. In the preparation, the particle size of the liposome was adjusted to 200 to 250 nm. Further, BSA was encapsulated in the internal aqueous phase. The prepared pH-responsive liposome ([Lipid]=20 mg/mL) was intravenously administered to a SD rat (male, body weight of 300 g or less) via the tail vein in an amount of 2 ml/kg under ether anesthesia. The number of rats used was N=3. Prior to the administration and 5 minutes, 1, 2, 6 and 24 hours after the administration, blood was collected (about 500 μL). The obtained blood was subjected to centrifugation (2,000×g, 20 minutes) to obtain plasma (liposome-suspended plasma), and this was preserved at −80° C. Further, after blood was collected 24 hours after the administration, the liver, spleen, lung and kidney were isolated, the wet weight thereof was measured, and these materials were preserved at −80° C. After that, homogenization was carried out using a saline in an amount 4 times greater than the wet weight of the organs.
A material in which the procedure is carried out until 100 μL of methanol is added to 10 μL of homogenate solution of plasma and the organs was used as a sample for measurement of specimen.
To the above-described sample for measurement, a solution to which an internal standard material (1,5-dihexadecyl N-glutamyl-L-glutamate (αGlu-Glu2C16)) was added (900 μL) was added, and the mixture was subjected to vortex stirring. After that, the mixture was allowed to stand at room temperature for at least 10 minutes. After that, the mixture was subjected to vortex stirring again and centrifuged at 4° C. at 10,000×g for 15 minutes. The obtained supernatant was transferred to an LC vial.
An analyte for producing a calibration curve for measurement of tissue was measured, and a calibration curve of 1-100 μg/ml was prepared with weighting of 1/x^2 and Quadratic. The peak area of the analyte for measurement of tissue/IS peak area was substituted into the obtained formula of the calibration curve to calculate the concentration of Compound 3 in tissue (in the calculation, the specific gravity of the tissue homogenate was regarded as 1 g/mL). FIG. 9 is a graph showing the results.

[2] = Preparation of liposome from mixed lipid (dispersion in water, high-pressure extrusion); type: physicochemical; conditions: mixed lipid compound/cholesterol/PEG-Glu2C18 dispersed in water, high-pressure extrusion 0.22 μm
Method: (§1) Compound 7, 8 or 9 (0.177 mmol), cholesterol (0.179 mmol) and PEG-Glu2C18 (1.0 μmol) were dissolved in benzene, and the mixture was freeze-dried to prepare a mixed lipid. 20 mg of this mixed lipid was dispersed in 1 mL of water for injection, and the resultant mixture was stirred for 6 hours. After that, liposome having a particle size of about 240 nm was prepared by means of the high-pressure extrusion method (final pore diameter: 0.22 μm).
as §1, with “Compound 3, 12” for “Compound 7, 8”, “or 13” for “or 9”, “(1.0 mmol)” for “(1.0 μmol)”

concentration at 24 h ([1]; liver, Liver, Average value): 76800 ng/g
concentration at 24 h ([1]; liver, Liver, animal 1): 110000 ng/g
concentration at 24 h ([1]; liver, Liver, animal 2): 64400 ng/g
concentration at 24 h ([1]; liver, Liver, animal 3): 55600 ng/g
concentration at 24 h ([1]; lung, Lung, Average value): 5600 ng/g
concentration at 24 h ([1]; lung, Lung, animal 1): 5600 ng/g
concentration at 24 h ([1]; lung, Lung, animal 2): 5020 ng/g
concentration at 24 h ([1]; lung, Lung, animal 3): 6170 ng/g
concentration at 24 h ([1]; spleen, Spleen, Average value): 33500 ng/g
concentration at 24 h ([1]; spleen, Spleen, animal 1): 30400 ng/g
concentration at 24 h ([1]; spleen, Spleen, animal 2): 33400 ng/g
concentration at 24 h ([1]; spleen, Spleen, animal 3): 36700 ng/g
liposome formation with the compound as main component [2]: liposome was formed
SMILES: CCCCCCCCCCCCCCCCOC(=O)CCC(NC(=O)C(CCCCNC(=O)C(N)CCC(=O)O)NC(=O)C(N)CCC(=O)O)C(=O)OCCCCCCCCCCCCCCCC (centres unmarked) [Compound 3]
distribution of Compound 3 in the organs ([1]; SD rat, 24 hours after the administration of pH-responsive liposome): mainly localized in the liver and spleen; also recorded: Almost no Compound 3 was localized in the kidney and lung
